Assay [1] relates to hepatic microsomal lipids (rat liver microsomes). The assay is described as follows: Antioxidant activity: chemical peroxidation of rat liver microsomes (T.BARS). It is filed as biochemical. To be noted: Fe3+/ADP/dihydroxyfumaric acid. The text has this:
In the presence of Fe^3+ and ADP, dihydroxyfumaric acid undergoes an autoxidation which generates oxygen free radicals. The latter bring about the peroxidation of hepatic microsomal lipids.

The test system of another assay is plasma cholesterol. In words: Hypocholesterolemic activity in rats on hypercholesterolemic diet. It counts as in vivo. As to conditions: Rattus norvegicus; male rats, oral, 4 days, Altromin C 1061 hypercholesterolemic diet; plasma cholesterol on day 5 after 16 h fast; read-out: ED50 (dose which reduces the plasma cholesterol concentration by half relative to control animals). As for the experimental part:
2) Hypocholesterolemic Activity
Male rats (160-180 g) are subjected for 4 days to an Altromin C 1061 hypercholesterolemic diet, and concomitantly treated orally with the compounds suspended in carboxymethylcellulose at a concentration of 1%.
On day 5, the animals, fasted for 16 hours, are anesthetized with ethyl ether and exsanguinated by drawing blood at the abdominal aorta onto EDTA.
The blood is immediately centrifuged and the plasma stored at 4° C.
Plasma cholesterol is then assayed by the CHOP-PAP method (Boehringer-Mannheim Ref. 237574).
The median effective dose (ED50) corresponds to the dose which reduces the plasma cholesterol concentration by half relative to control animals.

Another assay relates to Human LDL. The assay is described as follows: Antioxidant activity: oxidation of LDL by CuSO4 (T.BARS). It counts as biochemical. To be noted: 4.5 μM CuSO4, 6 hours incubation, T.BARS at 532 nm.
For assay [2], the target named is ACAT (acyl-CoA:cholesterol O-acyltransferase enzyme). In words: Inhibition of ACAT in vitro (technique of H. Chautan et al.). As to conditions: read-out: IC50 (50% inhibitory concentration), ACAT inhibition. It is filed as biochemical. The text has this:
The compounds were studied for their inhibitory effect on ACAT and hypocholesterolemic effect in rats on the one hand and for their antioxidant effect on the other hand.

These results are taken from patent publication US5760087A, “Glycylanilide derivatives, their preparation and their application in therapy” (Pierre Fabre Medicament, priority 1995, dated 1998).

Structures are written as SMILES. A value given as a limit tells only on which side of the number the result lay.

As for `CCCCCCCCCCCCSC(C)(C)C(=O)N(C)CC(=O)Nc1cc(C)c(O)c(C)c1C` [Compound 3, N-methyl-N-(α-n-dodecylthio)isobutyramido-2',3',5'-trimethyl-4'-hydroxyglycylanilide], the IC50 is 500 nM in assay [1], 5000 nM in the assay with Human LDL and 160 nM in assay [2]. Moreover, the ED50 in the assay on plasma cholesterol was < 2.5 mg/kg.
For `CCCCCCCCCCCCSC(C)(C)C(=O)NCC(=O)Nc1cc(C)c(O)c(C)c1C` [Compound 5, N-(α-n-dodecylthio)isobutyramido-2',3',5'-trimethyl-4'-hydroxyglycylanilide], in that order: 300 nM, 3000 nM, 620 nM and 2.5 mg/kg.
In the same order, the values of `CCCCCCCCCCCCSC(C)C(=O)NCC(=O)Nc1cc(C)c(O)c(C)c1C` (centres unmarked) [Compound 1, N-(2-n-dodecylthio)propionamido-2',3',5'-trimethyl-4'-hydroxyglycylanilide] are 3000 nM, 5000 nM, 1200 nM and 1 mg/kg.
`CCCCCCCCCCCCSC(C)C(=O)N(C)CC(=O)Nc1cc(C)c(O)c(C)c1C` (stereo not drawn) [Compound 8, N-methyl-N-(α-n-dodecylthio)propionamido-2',3',5'-trimethyl-4'-hydroxyglycylanilide]: the IC50 worked out at 500 nM in assay [1], 3000 nM in the assay with Human LDL and 280 nM in assay [2]. Besides, the ED50 in the assay with plasma cholesterol was 4 mg/kg.
Regarding `CCCCCCCCCCC(C)(C)C(=O)Nc1c(OC)cc(OC)cc1OC` [CI 976, reference compound], the values for the IC50 (in assay [1]; with Human LDL) were > 10000 nM and 100000 nM, respectively. Moreover, the ED50 in the assay with plasma cholesterol is 7.2 mg/kg.
In the same order, the values of `CCCCCCCN(CCCCCSc1nc(-c2ccccc2)c(-c2ccccc2)[nH]1)C(=O)Nc1ccc(F)cc1F` [DUP 128, reference compound] are > 10000 nM, 30000 nM and 1.4 mg/kg.
For the molecule `CCCCCCCCCCCCC(C)(C)C(=O)NCC(=O)Nc1cc(C)c(O)c(C)c1C` [Compound 2, N-(α,α,-dimethyl)tetradecanamido-2',3',5'-trimethyl-4'-hydroxyglycylanilide], the figures for the IC50 (in assay [1]; in the assay with Human LDL; in assay [2]) were 500 nM, 1000 nM and 740 nM, respectively. For the same molecule, the ED50 in the assay on plasma cholesterol worked out at 3 mg/kg.
